Measurements as given in patent US20260265687A1, “OCULAR ORGANOIDS” (KONINKLIJKE NEDERLANDSE AKADEMIE VAN WETENSCHAPPEN, priority 2023, published 2026).

How the values were obtained:
[1] = tested on: human Adenovirus 8 (hAdV8); test: hAdV8 infection of organoid-derived conjunctival ALI cultures, viral titers by qPCR and cytopathic effects; type: cell-based; details: 17-day-old conjunctival ALI cultures, up to 96 hours; for reversal of adenoviral (hAdV8) infection: 10 μM Acyclovir, 60 μM Cidofovir or 20 μM Nelfinavir
Source text: Adenoviruses are the leading cause of viral conjunctivitis. Yet, to date, no medication is available, partly because there is no model system for this type of ocular infection. An hAdV8 strain, isolated from a patient was provided by Dr. Nobuyo Yawata and Dr. Makoto Yawata (Kyushu University, Japan and NUS, Singapore) (see Yawata, N., and Yawata, M. 2022. Assessing the Response of Human NK Cell Subsets to Infection by Clinically Isolated Virus Strains. Methods Mol Biol 2463, 205-220. https://doi.org/10.1007/978-1-0716-2160-8_15). hAdV8 was added to 17-day-old conjunctival ALI cultures (FIG. 6E). Conjunctival ALI cultures were readily infected by hAdV8, as confirmed by the viral titre measured by qPCR (not shown). CPEs were visible starting from 48 hours after infection: infected cells darkened and were extruded from the epithelium. We then tested several antiviral drugs experimentally applied for adenoviral conjunctivitis (Acyclovir, Cidofovir and Nelfinavir) to test their efficacy in blocking the infection.
Human organoids (5-7 days after split) were harvested, trypsinized to single cells using 0.25% Trypsin/EDTA (ThermoFisher Scientific) for 5 minutes and 100,000 cells were seeded in 100 μL human expansion medium on 6.5 mm-wide transwells (Corning or Greiner). Human expansion medium was added to the lower compartment. After 3 to 4 days, when cells had reached confluency, medium from the upper compartment was removed to lift the cultures to air-liquid interface (ALI). The ALI cultures were maintained up to 22 days. The medium in the bottom compartment was changed every 3-4 days.
An hAdV8 strain isolated from a patient was used. Similar to HSV1 infection, hAdV8 at MOI 10 was added to the ALI culture in 50 μL PBS for 3 hours, before being washed away. Every 24 hours, the shed viruses were collected in 100 μL PBS and stored until further processing. If indicated, 10 μM Acyclovir (PHR1254, Sigma-Aldrich), 60 μM Cidofovir (C5874, Sigma-Aldrich) or 20 μM Nelfinavir (PZ0013, Sigma-Aldrich) was added to the bottom compartment after incubating with the virus. hAdV8-infected ALI cultures were kept for up to 4 days and, if required, fixed.
At the time of processing of the pellets for organoids and supernatants for ALI cultures, DNA was extracted using Zymogen Quick-DNA Microprep kit (ZY-D3020, Zymogen). DNA was systematically resuspended in 15 μL nuclease-free water (QIAGEN). Viral DNA was then quantified by qPCR as follow: 5 μL of the DNA extract was mixed together with 5 μL of SYBR green (Bio-Rad) containing HSV1 detection primers (HSV1-F: […] (SEQ ID NO: 13) and HSV1-R: […] (SEQ ID NO: 14)) or hAdV8 detection primers (hAdV8-F: […] (SEQ ID NO: 15) and hAdV8-R: […] (SEQ ID NO: 16). The SYBR green was mixed with 10 μM primer mix at a ratio 10:1. Technical duplicates were assessed by qPCR. The following program was used for viral DNA amplification: 95° C. for 2 minutes, followed by 40 cycles of 98° C. for 15 seconds, 60° C. for 15 seconds and 72° C. for 15 seconds. For quantifying the viral DNA content in ALI supernatants, we amplified 179 bp of HSV1-tdTomato genome using HSV1-F and HSV1-R and 1004 bp of the hAdV8 genome using hAdV8-F and hAdV8-R. We cloned both in a pJet vector (Thermo Fisher Scientific) and used it to make a standard curve ranging from 2.104 to 2.109 copies of viral genome according to Addgene instructions (https://www.addgene.org/protocols/aav-titration-qpcr-using-sybr-green-technology/). […]

[2] = tested on: Herpes Simplex Virus 1 (HSV1); test: HSV1 infection of organoid-derived conjunctival ALI cultures, viral titers by qPCR; type: cell-based; details: 10 μM Acyclovir in bottom compartment after virus incubation; 17-day-old human conjunctival ALI cultures; followed 96 hours
Protocol: To model HSV1 infection, we exposed the apical surface of fully differentiated 17-day-old ALI cultures for 3 hours to an HSV1 strain whose capsid protein VP26 was tagged with tdTomato (hereafter called HSV1-tdTomato, FIG. 6A). HSV1 titrer increased by 5 logs over the course of 96 hours after initial incubation with HSV1, implying a productive infection of the conjunctival ALI culture with HSV1 (FIG. 6B). In addition, we observed that the tdTomato signal increased over time in HSV1-infected ALI cultures when imaged using an Auto-EVOS microscope (Thermo Fisher Scientific) (Data not shown). […] Acyclovir, an inhibitor of HSV1 DNA polymerase, is commonly given to patients with HSV1-induced conjunctivitis. Indeed, the infection was blocked when ALI cultures were treated with 10 μM Acyclovir (FIG. 6A-B). Thus, organoid-derived ALI cultures support HSV1 infection and represent a human ocular surface model for HSV1 infection.
Human organoids (5-7 days after split) were harvested, trypsinized to single cells using 0.25% Trypsin/EDTA (ThermoFisher Scientific) for 5 minutes and 100,000 cells were seeded in 100 μL human expansion medium on 6.5 mm-wide transwells (Corning or Greiner). […]
Herpes Simplex Virus 1 containing endogenously tagged […] capsid protein with tdTomato (HSV1-tdTomato) was used. […] Viral titer quantification was performed as indicated below. […]

SMILES: Cc1c(O)cccc1C(=O)N[C@@H](CSc1ccccc1)[C@H](O)CN1C[C@H]2CCCC[C@H]2C[C@H]1C(=O)NC(C)(C)C [Nelfinavir]
- reversal of adenoviral (hAdV8) infection [1]: only Cidofovir could reverse adenoviral infection

SMILES: Nc1nc2c(ncn2COCCO)c(=O)[nH]1 [Acyclovir]
- HSV1 infection (HSV1 titers detected by qPCR) [2]: blocked
- reversal of adenoviral (hAdV8) infection [1]: only Cidofovir could reverse adenoviral infection

SMILES: Nc1ccn(C[C@@H](CO)OCP(=O)(O)O)c(=O)n1 [Cidofovir]
- reversal of adenoviral (hAdV8) infection [1]: could reverse adenoviral infection
- cytopathic effects (CPEs) after hAdV8 infection ([1]; 60 μM Cidofovir): absence
- hAdV8 viral titre (qPCR) ([1]; 60 μM Cidofovir): decrease
